Reference: patent US10647675B2 (priority 2015, dated 2020)
Converted amounts (≈) assume the structure as drawn.

Assays:
[1] = test system: Trichophyton rubrum KD-1130; experiment: Antifungal activity evaluation test: minimum inhibitory concentration (MIC), broth dilution by reference to CLSI M38-A2; assay type: cell-based; settings: KD1130, read-out: MIC (T. rubrum)
In short: (§1)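 MIC read visually as lowest concentration inhibiting growth by at least 80% relative to control after 4 days at 35° C. Trichophyton strains inoculated at 2×10^3 cells/mL final in MOPS-buffered RPMI 1640 (pH 7.0); compounds as 2-fold DMSO series, CLSI M38-A2 basis.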

[2] = test system: Trichophyton mentagrophytes SM-110; experiment: as above; assay type: cell-based; settings: SM110, read-out: MIC (T. menta.)
In short: as §1

Compound	MIC [1] [µg/mL]	MIC [2] [µg/mL]
COc1ccncc1-c1cccnc1Oc1ccc(Br)cc1 [I-234, 2-(4-bromophenoxy)-4′-methoxy-3,3′-bipyridine]	≤ 0.1	≤ 0.1
COc1ncc(F)cc1-c1cccnc1Oc1ccc(C(F)(F)F)cc1 [I-209, 5-fluoro-2-methoxy-2′-[4-(trifluoromethyl)phenoxy]-3,3′-bipyridine]	≤ 0.1	≤ 0.1
COc1nccnc1-c1cccnc1Oc1ccc(C(F)(F)F)cc1 [I-218, 2-methoxy-3-{2-[4-(trifluoromethyl)phenoxy]pyridin-3-yl}pyrazine]	≤ 0.1	≤ 0.1
Cc1cnc(-c2ccc(Oc3ncccc3-c3cnccc3C)cc2)s1 [I-428]	≤ 0.1	≤ 0.1
COc1ccccc1-c1c(C)ccnc1Oc1ccc(C(F)(F)F)nc1 [I-65, 3-(2-methoxyphenyl)-4-methyl-2-{[6-(trifluoromethyl)pyridin-3-yl]oxy}pyridine]	≤ 0.1	0.2 to 0.78 (≈ 0.555 to 2.16 µM)
COCc1ccc(Oc2ncccc2-c2cnccc2OC)cc1 [I-251, 4′-methoxy-2-[4-(methoxymethyl)phenoxy]-3,3′-bipyridine]	1.56 to 6.25 (≈ 4.84 to 19.4 µM)	1.56 to 6.25 (≈ 4.84 to 19.4 µM)
COc1ncc(Cl)cc1-c1cccnc1Oc1cnc(C(F)(F)F)nc1 [I-180, 5-chloro-2-methoxy-2′-{[2-(trifluoromethyl)pyrimidin-5-yl]oxy}-3,3′-bipyridine]	≤ 0.1	≤ 0.1
CCc1ccc(Oc2ncccc2-c2ccccc2OC)cn1 [I-124, 2-[(6-ethylpyridin-3-yl)oxy]-3-(2-methoxyphenyl)pyridine]	0.2 to 0.78 (≈ 0.653 to 2.55 µM)	0.2 to 0.78 (≈ 0.653 to 2.55 µM)
CCCSc1ncc(Oc2ncccc2-c2ccc(F)cc2OC)cn1 [I-186, 2-(propylthio)-5-{[3-(4-fluoro-2-methoxyphenyl)pyridin-2-yl]oxy}-pyrimidine]	≤ 0.1	≤ 0.1
COc1cc(-c2cncnc2Oc2ccc(C(F)F)nc2)c(F)cc1F [I-363, 5-(2,4-difluoro-5-methoxyphenyl)-4-{[6-(difluoromethyl)pyridin-3-yl]oxy}pyrimidine]	≤ 0.1	≤ 0.1
Cc1noc(-c2ccc(Oc3ncccc3-c3cnccc3C)cc2)n1 [I-421]	≤ 0.1	≤ 0.1
COCC(F)(F)c1ccc(Oc2ncccc2-c2cccc3c2OCC3)cn1 [I-166, 2-{[6-(1,1-difluoro-2-methoxyethyl)pyridin-3-yl]oxy}-3-(2,3-dihydrobenzofuran-7-yl)pyridine]	≤ 0.1	≤ 0.1
COc1ccncc1-c1cccnc1Oc1ccc(C(C)(F)F)cc1F [I-302]	≤ 0.1	≤ 0.1
CC(F)(F)c1ccc(Oc2ncccc2-c2cccc3c(Cl)cnn23)cn1 [I-116, 3-chloro-7-(2-{[6-(1,1-difluoroethyl)pyridin-3-yl]oxy}pyridin-3-yl)pyrazolo[1,5-a]pyridine]	≤ 0.1	≤ 0.1
COCC(F)(F)c1ccc(Oc2ncccc2-c2ccc(OC)nc2OC)cn1 [I-460]	≤ 0.1	≤ 0.1
COc1ccncc1-c1cccnc1Oc1ccc(SC(F)(F)F)cc1 [I-239, 4′-methoxy-2-{4-[(trifluoromethyl)thio]phenoxy}-3,3′-bipyridine]	0.2 to 0.78 (≈ 0.529 to 2.06 µM)	0.2 to 0.78 (≈ 0.529 to 2.06 µM)
CCOC(=O)c1ccc(Oc2ncccc2-c2cnccc2Cl)cc1 [I-414]	≤ 0.1	≤ 0.1
COc1ccncc1-c1cccnc1Oc1ccc(OC(F)(F)F)cc1 [I-237, 4′-methoxy-2-[4-(trifluoromethoxy)phenoxy]-3,3′-bipyridine]	≤ 0.1	≤ 0.1
COCC(F)(F)c1ccc(Oc2ncccc2-c2cccc3ccnn23)cc1 [I-413, 7-{2-[4-(1,1-difluoro-2-methoxyethyl)phenoxy]pyridin-3-yl}pyrazolo[1,5-a]pyridine]	≤ 0.1	≤ 0.1
CCOCCc1ccc(Oc2ncccc2-c2cnccc2OC)cc1 [I-274, 2-[4-(2-ethoxyethyl)phenoxy]-4′-methoxy-3,3′-bipyridine]	0.2 to 0.78 (≈ 0.571 to 2.23 µM)	0.2 to 0.78 (≈ 0.571 to 2.23 µM)
CCc1ccc(Oc2ncccc2-c2cnccc2OC)cc1 [I-253, 2-(4-ethylphenoxy)-4′-methoxy-3,3′-bipyridine]	≤ 0.1	≤ 0.1
COc1cc(F)ccc1-c1cccnc1Oc1ccc(C(F)(F)CO)nc1 [I-154, 2,2-difluoro-2-(5-{[3-(4-fluoro-2-methoxyphenyl)pyridin-2-yl]oxy}pyridin-2-yl)-ethanol]	0.2 to 0.78 (≈ 0.531 to 2.07 µM)	0.2 to 0.78 (≈ 0.531 to 2.07 µM)
COc1ccccc1-c1cccnc1Oc1ccc(C(F)F)nc1 [I-72, 2-{[6-(difluoromethyl)pyridin-3-yl]oxy}(2-methoxyphenyl)pyridine]	0.2 to 0.78 (≈ 0.609 to 2.38 µM)	0.2 to 0.78 (≈ 0.609 to 2.38 µM)
COC(=O)CCc1ccc(Oc2ncccc2-c2cccnc2OC)cc1 [I-409]	≤ 0.1	≤ 0.1
CCCN(C)c1ncc(Oc2ncccc2-c2cc(Cl)cnc2OC)cn1 [I-452]	≤ 0.1	≤ 0.1

Compound	MIC [1] [µg/mL]	MIC [2] [µg/mL]
COc1ncccc1-c1cccnc1Oc1ccc(CCc2nc(C)no2)cc1 [I-411]	≤ 0.1	≤ 0.1
COCCN(C)c1ncc(Oc2ncccc2-c2ccc(F)cc2OC)cn1 [I-188, 5-{[3-(4-fluoro-2-methoxyphenyl)pyridin-2-yl]oxy}-N-(2-methoxyethyl)-N-methylpyrimidin-2-amine]	≤ 0.1	≤ 0.1
COc1cc(F)c(F)cc1-c1cccnc1Oc1ccc(C(F)F)nc1 [I-76, 3-(4,5-difluoro-2-methoxyphenyl)-2-{[6-(difluoromethyl)pyridin-3-yl]oxy}pyridine]	≤ 0.1	≤ 0.1
CC(F)(F)c1ccc(Oc2ncccc2-c2cccc3ccnn23)cn1 [I-115, 7-(2-{[6-(1,1-difluoroethyl)pyridin-3-yl]oxy}pyridin-3-yl)pyrazolo[1,5-a]pyridine]	≤ 0.1	≤ 0.1
Cc1noc(C)c1-c1cccnc1Oc1ccc(C(C)(F)F)nc1 [I-102]	0.2 to 0.78 (≈ 0.604 to 2.35 µM)	0.2 to 0.78 (≈ 0.604 to 2.35 µM)
COc1c(F)cncc1-c1cccnc1Oc1ccc(C(F)(F)F)cc1 [I-212, 5′-fluoro-4′-methoxy-2-[4-(trifluoromethyl)phenoxy]-3,3′-bipyridine]	≤ 0.1	≤ 0.1
FC(F)c1ccc(Oc2ncncc2-c2cccc3ccnn23)cc1 [I-358, 7-{4-[4-(difluoromethyl)phenoxy]pyrimidin-5-yl)pyrazolo[1,5-a]-pyridine]	≤ 0.1	≤ 0.1
COc1cnccc1-c1cccnc1Oc1ccc(C(C)(F)F)nc1 [I-89, 2-{[6-(1,1-difluoroethyl)pyridin-3-yl]oxy}-3′-methoxy-3,4′-bipyridine]	0.2 to 0.78 (≈ 0.583 to 2.27 µM)	0.2 to 0.78 (≈ 0.583 to 2.27 µM)
COc1cccc(F)c1-c1cccnc1Oc1ccc(C(F)(F)F)nc1 [I-10, 3-(2-fluoro-6-methoxyphenyl)-2-{[6-(trifluoromethyl)pyridin-3-yl]oxy}pyridine]	≤ 0.1	≤ 0.1
FC(F)(F)c1ccc(Oc2ncccc2-c2cccc3ccnn23)cc1 [I-228, 7-{2-[4-(trifluoromethyl)phenoxy]pyridin-3-yl}pyrazolo[1,5-a]pyridine]	≤ 0.1	≤ 0.1
CCOC(=O)CN(C)c1ncc(Oc2ncccc2-c2ccc(F)cc2OC)cn1 [I-386, ethyl 2-[(5-{[3-(4-fluoro-2-methoxyphenyl)pyridin-2-yl]oxy}-pyrimidin-2-yl)(methyl)amino]acetate]	≤ 0.1	≤ 0.1
COc1ccc(-c2cccnc2Oc2ccc(C(F)F)nc2)c(OC)n1 [I-78, 2′-{[6-(difluoromethyl)pyridin-3-yl]oxy}-2,6-dimethoxy-3,3′-bipyridine]	≤ 0.1	≤ 0.1
COc1cc(-c2cccnc2Oc2ccc(C(F)F)nc2)c(F)cc1F [I-77, 3-(2,4-difluoro-5-methoxyphenyl)-2-{[6-(difluoromethyl)pyridin-3-yl]oxy}pyridine]	≤ 0.1	≤ 0.1
Cc1c(F)cncc1-c1cccnc1Oc1ccc(C(F)(F)F)cc1 [I-208]	≤ 0.1	≤ 0.1
Cc1ccncc1-c1cccnc1Oc1ccc(-c2ccccn2)cc1 [I-431]	≤ 0.1	≤ 0.1
COc1ccccc1-c1cccnc1Oc1cnc2c(c1)CCCC2=O [I-141, 3-{[3-(2-methoxyphenyl)pyridin-2-yl]oxy}-6,7-dihydroquinolin-8(5H)-one]	1.56 to 6.25 (≈ 4.5 to 18 µM)	1.56 to 6.25 (≈ 4.5 to 18 µM)
COc1ccncc1-c1cccnc1Oc1ccc(C(=O)OC(C)C)cc1 [I-418]	≤ 0.1	≤ 0.1
COc1ccc(F)c(-c2cccnc2Oc2ccc(C(F)F)nc2)c1 [I-74, 2-{[6-(difluoromethyl)pyridin-3-yl]oxy}-3-(2-fluoro-5-methoxyphenyl)pyridine]	≤ 0.1	≤ 0.1
COc1cc(F)ccc1-c1cccnc1Oc1cnc(C(F)F)c(C)c1 [I-121, 2-(difluoromethyl)-5-{[3-(4-fluoro-2-methoxyphenyl)pyridin-2-yl]oxy}-3-methylpyridine]	≤ 0.1	≤ 0.1
COCC(F)(F)c1ccc(Oc2ncccc2-c2cc(OC)c(F)cc2F)cn1 [I-165, 2-{[6-(1,1-difluoro-2-methoxyethyl)pyridin-3-yl]oxy}-3-(2,4-difluoro-5-methoxyphenyl)pyridine]	≤ 0.1	≤ 0.1
CCc1ccc(Oc2ncccc2-c2cccnc2OC)cn1 [I-126, 2-[(6-ethylpyridin-3-yl)oxy]-2′-methoxy-3,3′-bipyridine]	0.2 to 0.78 (≈ 0.651 to 2.54 µM)	0.2 to 0.78 (≈ 0.651 to 2.54 µM)
Cc1ccncc1-c1cccnc1Oc1ccc(-c2ncccn2)cc1 [I-429]	≤ 0.1	≤ 0.1
COC(=O)CN(C)c1ncc(Oc2ncccc2-c2cccnc2OC)cn1 [I-354, methyl 2-[(5-{[2′-methoxy-(3,3′-bipyridin)-2-yl]oxy}-pyrimidin-2-yl)(methyl)amino]acetate]	0.2 to 0.78 (≈ 0.524 to 2.05 µM)	≤ 0.1
Cc1cncc(-c2cccnc2Oc2ccc(C(C)(F)F)nc2)c1 [I-93, 2-{[6-(1,1-difluoroethyl)pyridin-3-yl]oxy}-5′-methyl-3,3′-bipyridine]	0.2 to 0.78 (≈ 0.611 to 2.38 µM)	0.2 to 0.78 (≈ 0.611 to 2.38 µM)
